According to patent US20240293416A1, “TREATMENT OF LIVER DISORDERS WITH A THR-ß AGONIST” (Terns Pharmaceuticals, Inc., priority 2021, published 2024):
Entries after “also recorded” stand apart in the source; their conditions may differ. Blank lines part the entries; values can stand above or below the compound they belong to.

Experiments:
[1] = system: SHBG, Apo B and serum lipids; assay: Multiple ascending dose trial: serum PD biomarkers; type: in vivo, human
Description: (§1) A multiple-ascending dose clinical trial of Compound 1 was performed.
(§2) (See Table 5, FIG. 7.) PK parameters were estimated via noncompartmental methods using Phoenix® WinNonlin® (Certara, LP, Princeton, NJ). Concentrations of serum pharmacodynamic (PD) biomarkers apolipoprotein B (Apo B) and sex hormone binding globulin (SHBG) were measured using an immunoassay and serum lipids were determined using spectrophotometry.
(§3) PD sampling was also performed. Percent change from baseline for PD markers were calculated using an ANCOVA model with percent change from baseline as dependent variable, treatment group as fixed effect, and baseline as covariate. Analyses used observed data only without imputation for missing data.

[2] = Food effect on PK performance in beagle dogs; type: in vivo; conditions: 10 mg capsule, 5% SLS; fasted vs high fat fed dogs, n=3 per group
Description: To determine the food effect on PK performance, beagle dogs were divided into two groups (n=3 per group). For the fasted group, dogs were fasted overnight through 4-hours post dosing. For the fed group, dogs were fed high fat food 30 minutes prior to administration.

[3] = system: SHBG, Apo B and serum lipids; assay: Single ascending dose trial: serum PD biomarkers; type: in vivo, human; conditions: for Apo B Change / SHBG Change: n = 6
Description: A single-ascending dose clinical trial of Compound 1 (potassium salt) was performed.
as §2, with “PK” for “(See Table 5, FIG. 7.) PK”, “Phoenix WinNonlink” for “Phoenix® WinNonlin®”
as §3, with “performed pre-dose, and 48 hours and 72 hours post-dose.” for “also performed.”

[4] = Solubilizer compatibility in formulation study; type: physicochemical; conditions: co-formulation
Source text: The level of SLS between 1.5% to 5.0% w/w was investigated.

[5] = pH effect on PK performance in beagle dogs; type: in vivo; conditions: 10 mg capsule, 5% SLS; pentagastrin vs famotidine pre-treatment, n=3 per group
Source text: To determine the pH effect on PK performance, beagle dogs were divided into two groups (n=3 per group).

BCS classification = type: physicochemical
[6] = Multiple ascending dose trial: pharmacokinetics; type: in vivo, human
Description: as §1, §2

[7] = system: SHBG, LDL-c and other lipid parameters; assay: Multiple ascending doses in healthy subjects with elevated LDL-c: PD markers; type: in vivo, human; conditions: 1, 3, 6 or 10 mg once daily for 14 days
Source text: Secondary Objectives: Evaluate the PK and PD of Compound 1 in healthy subjects with elevated LDL-c following multiple ascending doses of Compound 1.

[8] = DIO-GAN NASH mice: trough plasma compound levels by LC-MS/MS; type: in vivo, C57BL/6JRj mice; conditions: plasma 21-24 hours post final dose
Description: Terminal plasma samples were harvested by cardiac puncture approximately 21-24 hours after the last administration of compound(s). Terminal plasma samples were analyzed by high resolution LC-MS/MS using a Triple Quad 6500+ instrument. 20 μL of plasma sample was mixed with 200 μL of internal standard solution (100 ng/ml Labetalol+100 ng/ml Tolbutamide in acetonitrile), vortexed, and centrifuged at 4,000 rpm for 15 min at 4° C. […] The internal standard (retention time: 0.76 min), was used for quantification of the glucuronide metabolite of Compound 2 (retention time: 0.77 min). Calibration curves (1-3000 ng/mL) were generated in a matrix of mouse plasma (pooled vehicle control) for each analyte.
Terminal plasma samples collected by cardiac puncture 21-24 hours post final treatment dose (i.e., trough) were analyzed by LC-MS/MS. Values represent mean and standard deviation (SD). ND, not determined.

[9] = system: biopsy-confirmed DIO-NASH mice; assay: DIO-GAN NASH mice: body weight, organ weight, body composition; type: in vivo, C57BL/6JRj mice; conditions: doses per Table 16
Source text: C57BL/6JRj male mice (n=138) were fed the Gubra Amylin NASH (GAN) diet (40% fat, 22% fructose, 2% cholesterol [D09100310, Research Diets]) or lean chow diet for 35 weeks before treatment start. Prior to treatment all animals underwent liver biopsy for histological confirmation (steatosis score ≥2 and fibrosis stage ≥1) and stratification using the nonalcoholic fatty liver disease (NAFLD) activity scoring (NAS) and fibrosis staging system. The diet-induced obese mice on GAN diet (DIO-GAN) were randomized to 8 treatment groups (Table 16) based on percent-area of picrosirius red (PSR) staining. […] Vehicle-dosed lean chow-fed controls served as healthy controls (n=10). Mice were maintained on their respective diets (GAN or lean chow) for the duration of the study. Within-subject comparisons (pre-vs. post-treatment) were performed for liver biopsy histopathological scores. Terminal quantitative endpoints included plasma/liver biochemistry, liver histomorphometry, and liver transcriptomic analysis by RNAseq.
The diet-induced obese, Gubra Amylin NASH model (DIO-GAN) recapitulates many of the histopathological features of human NASH (Hansen 2020). […] To induce NASH disease, C57BL/6JRj mice were maintained a on diet high in fat, cholesterol, and fructose (GAN diet) for >35 weeks. Prior to therapeutic intervention, mice were biopsied to assess NASH disease and fibrosis severity; mice with a steatosis score <2 and fibrosis stage <1 were excluded from the study. DIO-GAN mice were then randomized into 8 treatment groups (n=16 per group) based on the percent fractional area of Picrosirius red (PSR) staining of the pre-treatment biopsy as well as body fat tissue mass determined by whole body Echo-magnetic resonance imaging (EchoMRI). […] DIO-GAN mice administered vehicle by oral gavage once daily served as a control. Mice were treated for a total of 12 weeks and were maintained on GAN diet throughout the study. Lean mice (n=10), maintained on normal chow diet throughout the study served as healthy controls.
Body composition was determined at baseline (Week-1) and Week 11 of the study by whole body EchoMRI to determine the relative levels lean and fat tissue as a percentage of body weight. Baseline levels of lean and fat tissue were well balanced across treatment groups (FIGS. 33A and 33B).

P-gp = P-gp (Homo sapiens, UniProt P08183); assay: In vitro transporter inhibition, P-gp; type: in vitro ADME
P-gp, sequence (P08183 whole entry): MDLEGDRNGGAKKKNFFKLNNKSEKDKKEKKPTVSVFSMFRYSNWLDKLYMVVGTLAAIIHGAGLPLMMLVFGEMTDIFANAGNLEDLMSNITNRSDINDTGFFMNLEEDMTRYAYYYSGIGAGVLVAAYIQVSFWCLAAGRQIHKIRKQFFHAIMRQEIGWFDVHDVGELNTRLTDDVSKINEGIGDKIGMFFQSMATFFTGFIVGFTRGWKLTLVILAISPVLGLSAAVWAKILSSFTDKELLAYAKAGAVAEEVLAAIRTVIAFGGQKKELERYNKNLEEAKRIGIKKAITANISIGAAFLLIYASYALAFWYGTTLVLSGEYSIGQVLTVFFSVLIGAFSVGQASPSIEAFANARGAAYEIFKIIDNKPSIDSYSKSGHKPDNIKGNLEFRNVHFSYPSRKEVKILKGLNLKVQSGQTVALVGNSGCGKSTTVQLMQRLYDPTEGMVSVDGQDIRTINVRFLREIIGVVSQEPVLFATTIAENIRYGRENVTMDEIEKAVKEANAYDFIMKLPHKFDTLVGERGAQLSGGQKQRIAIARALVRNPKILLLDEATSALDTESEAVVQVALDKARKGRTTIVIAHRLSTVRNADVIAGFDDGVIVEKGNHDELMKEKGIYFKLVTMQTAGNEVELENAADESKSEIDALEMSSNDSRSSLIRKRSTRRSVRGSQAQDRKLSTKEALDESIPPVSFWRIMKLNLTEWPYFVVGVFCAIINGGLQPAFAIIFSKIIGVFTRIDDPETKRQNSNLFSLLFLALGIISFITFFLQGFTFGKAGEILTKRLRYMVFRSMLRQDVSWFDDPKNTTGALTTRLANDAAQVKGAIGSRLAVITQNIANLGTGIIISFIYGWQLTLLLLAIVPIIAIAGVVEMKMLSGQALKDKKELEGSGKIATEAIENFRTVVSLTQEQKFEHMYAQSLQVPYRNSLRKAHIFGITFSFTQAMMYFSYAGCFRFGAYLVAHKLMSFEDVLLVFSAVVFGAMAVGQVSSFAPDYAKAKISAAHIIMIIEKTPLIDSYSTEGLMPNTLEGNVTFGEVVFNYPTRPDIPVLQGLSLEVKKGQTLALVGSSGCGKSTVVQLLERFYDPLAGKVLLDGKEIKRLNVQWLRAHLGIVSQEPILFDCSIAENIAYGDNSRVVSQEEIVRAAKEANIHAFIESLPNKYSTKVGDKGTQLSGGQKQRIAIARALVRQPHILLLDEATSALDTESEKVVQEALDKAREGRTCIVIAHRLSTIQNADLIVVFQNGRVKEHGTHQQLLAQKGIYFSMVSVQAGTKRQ

food effect on Tmax [2]: delayed | pH effect on plasma concentrations [5]: Minimal pH effect | BCS classification (BCS classification): BCS Class IV | t1/2 ([6]; Day 14, 6 mg QD, N = 6, median): 15.8 h
SMILES: N#Cc1nn(-c2cc(Cl)c(Oc3n[nH]c(=O)c4ccccc34)c(Cl)c2)c(=O)[nH]c1=O [Compound 1, 2-(3,5-dichloro-4-((4-oxo-3,4-dihydrophthalazin-1-yl)oxy)phenyl)-3,5-dioxo-2,3,4,5-tetrahydro-1,2,4-triazine-6-nitrile]
total cholesterol, LDL-c, Apo B, and triglycerides ([1]; all dose levels): Reductions | HDL-c ([1]; day 15): did not significantly change | total cholesterol, LDL-c, Apo B, and triglycerides ([1]; day 15, 10 mg dose cohort): significant reductions | SHBG ([1]; multiple doses, even at 3 mg QD): significant and dose-dependent increases | food effect on plasma exposure [2]: did not have an impact on the plasma exposure | Apo B Change ([3]; Day 3 after single 3 mg dose): −1.5% | SHBG Change ([3]; Day 3 after single 3 mg dose): 0.20 nmol/L | Apo B Change ([3]; Day 3 after single 10 mg dose): −5.6% | SHBG Change ([3]; Day 3 after single 30 mg dose): 6.0 nmol/L | LDL-c, total cholesterol, and Apo-B ([3]; Day 3 following single dose, similar on Day 4): Dose-dependent decreases | triglyceride levels ([3]; after a single dose): No significant changes | SHBG relative to placebo ([3]; single doses of ≥10 mg): Significant increases | compatibility with sodium lauryl sulfate (SLS) [4]: good compatibility; also recorded: minimal or no degradation | effect of ionic surfactants (e.g., SLS) on solubility [4]: increased the aqueous solubility; also recorded: dramatic enhancement of solubility at all pH levels | oral bioavailability and PK variability ([6]; multiple doses): good oral bioavailability with low PK variability | SHBG [7]: increased | circulating atherogenic lipid levels including LDL-c, Apo B, total cholesterol, and triglycerides [7]: significant decreases

Mean trough analyte concentration (SD) ([8]; treatment group Combo-high, n = 14): 3.3 (1.8) ng/mL | Mean trough analyte concentration (SD) ([8]; treatment group Combo-med, n = 16): 5.8 (3.5) ng/mL | Mean trough analyte concentration (SD) ([8]; treatment group Compound 2 (10 mg/kg), n = 16): 7.4 (3.8) ng/mL | IC50 (P-gp): 3.92 µM
SMILES: Cn1cc(C(=O)O)c2ccc(C3CCC(OCc4c(-c5c(Cl)cccc5Cl)noc4C4CC4)CC3)cc21 (centres unmarked) [Compound 2]
body weight at the end of study vs DIO-GAN vehicle control ([9]; PO QD 12 weeks): significantly lower | body weight during the study ([9]; PO QD 12 weeks): decreased body weight | fat tissue (% BW, EchoMRI) ([9]; Week 11): reduced levels of fat tissue | relative lean tissue mass (EchoMRI) ([9]; Week 11): significant increases
